Data: US8815809B2, “Cysteine protease inhibitors” (Medivir UK Ltd, priority 2009, dated 2014)

How the values were obtained:
Type in all cases: biochemical
[1] = biological target: T1, cathepsin K (Homo sapiens, UniProt P43235); assay: Determination of cathepsin K proteolytic catalytic activity (Ki); details: human recombinant enzyme, H-D-Ala-Leu-Lys-AMC substrate; read-out: Ki Cat. K
T1 construct: made in house; host or cells: not fixed: E. coli, Pichia or Baculovirus systems are named as options
T1 sequence (P43235 115-329): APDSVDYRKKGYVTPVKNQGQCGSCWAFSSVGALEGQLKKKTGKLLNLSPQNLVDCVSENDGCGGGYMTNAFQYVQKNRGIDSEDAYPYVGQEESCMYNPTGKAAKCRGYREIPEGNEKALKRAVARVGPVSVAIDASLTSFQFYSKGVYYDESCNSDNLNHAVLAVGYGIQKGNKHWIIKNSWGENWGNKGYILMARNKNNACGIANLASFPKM
Method: Convenient assays for cathepsin K are carried out using human recombinant enzyme, such as that described in PDB.
The recombinant cathepsin K can be expressed in a variety of commercially available expression systems including E. coli, Pichia and Baculovirus systems. The purified enzyme is activated by removal of the prosequence by conventional methods.
Standard assay conditions for the determination of kinetic constants used a fluorogenic peptide substrate, typically H-D-Ala-Leu-Lys-AMC, and were determined in either 100 mM Mes/Tris, pH 7.0 containing 1 mM EDTA and 10 mM 2-mercaptoethanol or 100 mM Na phosphate, imM EDTA, 0.1% PEG4000 pH 6.5 or 100 mM Na acetate, pH 5.5 containing 5 mM EDTA and 20 mM cysteine, in each case optionally with […] as stabiliser. The enzyme concentration used was 5 nM. The stock substrate solution was prepared at 10 mM in DMSO. Screens were carried out at a fixed substrate concentration of 60 μM and detailed kinetic studies with doubling dilutions of substrate from 250 μM. The total DMSO concentration in the assay was kept below 3%. All assays were conducted at ambient temperature. Product fluorescence (excitation at 390 nm, emission at 460 nm) was monitored with a Labsystems Fluoroskan Ascent fluorescent plate reader. Product progress curves were generated over 15 minutes following generation of AMC product.
(§1) Potential inhibitors are screened using the above assay with variable concentrations of test compound. Reactions were initiated by addition of enzyme to buffered solutions of substrate and inhibitor. Ki values were calculated according to equation 1.
(§2) [formula] where v0 is the velocity of the reaction, V is the maximal velocity, S is the concentration of substrate with Michaelis constant of KM, and I is the concentration of inhibitor.

[2] = biological target: T2, human cathepsin S (Homo sapiens, UniProt P25774); assay: Cathepsin S Ki determination; details: baculovirus-expressed human cathepsin S, boc-Val-Leu-Lys-AMC substrate, pH 6.5; read-out: Ki Cat. S
T2 construct: made in house; host or cells: baculovirus expression system
Method: The assay uses baculovirus-expressed human cathepsin S and the boc-Val-Leu-Lys-AMC fluorescent substrate available from Bachem in a 384 well plate format, in which 7 test compounds can be tested in parallel with a positive control comprising a known cathepsin S inhibitor comparator.
280 μL/well of 12.5% DMSO are added to rows B-H of two columns of a 96 deep well polypropylene plate. 70 μL/well of substrate is added to row A. 2×250 μL/well of assay buffer (100 mM Na phosphate, 100 mM NaCl, pH 6.5) is added to row A, mixed, and double diluted down the plate to row H.
100 μL/well of assay buffer is added to columns 2-5 and 7-12 of 4 rows of a 96 well V bottom polypropylene plate. 200 μL/well of assay buffer is added to columns 1 and 6.
The first test compound prepared in DMSO is added to column 1 of the top row, typically at a volume to provide between 10 and 30 times the initially determined rough K1. The rough K, is calculated from a preliminary run in which 10 μL/well of 1 mM boc-VLK-AMC (1/10 dilution of 10 mM stock in DMSO diluted into assay buffer) is dispensed to rows B to H and 20 μl/well to row A of a 96 well Microfluor™ plate. 2 μl of each 10 mM test compound is added to a separate well on row A, columns 1-10. Add 90 μl assay buffer containing 1 mM DTT and 2 nM cathepsin S to each well of rows B-H and 180 μl to row A. Mix row A using a multichannel pipette and double dilute to row G. Mix row H and read in the fluorescent spectrophotometer.
The second test compound is added to column 6 of the top row, the third to column 1 of the second row etc. Add 1 μL of comparator to column 6 of the bottom row. Mix column 1 and double dilute to column 5. Mix column 6 and double dilute to column 10.
Using an 8-channel multistepping pipette set to 5×10 μL, distribute 10 μL/well of substrate to the 384 well assay plate. Distribute the first column of the substrate dilution plate to all columns of the assay plate starting at row A. The tip spacing of the multichannel pipette will correctly skip alternate rows. Distribute the second column to all columns starting at row B.
Using a 12-channel multistepping pipette set to 4×10 μL, distribute 10 μL/well of inhibitor to the 384 well assay plate. Distribute the first row of the inhibitor dilution plate to alternate rows of the assay plate starting at A1. The tip spacing of the multichannel pipette will correctly skip alternate columns. Similarly, distribute the second, third and fourth rows to alternate rows and columns starting at A2, B1 and B2 respectively.
Mix 20 mL assay buffer and 20 μL 1M DTT. Add sufficient cathepsin S to give 2 nM final concentration.
Using the a distributor such as a Multidrop 384, add 30 μL/well to all wells of the assay plate and read in fluorescent spectrophotometer such as an Ascent.
Fluorescent readings, (excitation and emission wavelengths 390 nm and 460 nm respectively, set using bandpass filters) reflecting the extent of enzyme cleavage of the fluorescent substrate, […] the inhibitor, are linear rate fitted for each well.
Fitted rates for all wells for each inhibitor are fitted to the competitive inhibition equation using SigmaPlot 2000 to determine V, Km and Ki values.
as §1, §2

[3] = biological target: human cathepsin L (Homo sapiens, UniProt P07711); assay: Cathepsin L Ki; details: H-D-Val-Leu-Lys-AMC substrate, pH 5.5, read-out: Ki Cat. L
Method: The procedure above with the following amendments is used for the determination of Ki for cathepsin L.
The enzyme is commercially available human cathepsin L (for example Calbiochem). The substrate is H-D-Val-Leu-Lys-AMC available from Bahcem. The assay buffer is 100 mM sodium acetate 1 mM EDTA, pH5.5) The DMSO stock (10 mM in 100% DMSO) is diluted to 10% in assay buffer. Enzyme is prepared at 5 nM concentration in assay buffer plus 1 mM dithiothreitol just before use. 2 μL of 10 mM inhibitor made up in 100% DMSO is dispensed into row A. 10 μL of 50 μM substrate (=1/200 dilution of 10 mM stock in DMSO, diluted in assay buffer).
as §1, §2

human cathepsin L, sequence (P07711 114-333): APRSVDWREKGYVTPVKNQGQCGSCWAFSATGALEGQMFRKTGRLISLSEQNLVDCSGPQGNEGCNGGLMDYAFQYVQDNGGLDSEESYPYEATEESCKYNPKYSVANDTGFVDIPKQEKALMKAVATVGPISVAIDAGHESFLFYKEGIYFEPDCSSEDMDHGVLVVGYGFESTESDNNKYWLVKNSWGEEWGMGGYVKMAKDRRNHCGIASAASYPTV
T2 sequence (P25774 115-331): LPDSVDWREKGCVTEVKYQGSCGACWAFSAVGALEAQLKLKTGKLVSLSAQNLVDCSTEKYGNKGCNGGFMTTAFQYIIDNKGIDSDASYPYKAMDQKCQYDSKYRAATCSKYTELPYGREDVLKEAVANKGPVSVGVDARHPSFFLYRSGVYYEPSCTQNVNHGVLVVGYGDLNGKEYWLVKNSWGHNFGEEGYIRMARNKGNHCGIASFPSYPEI

SMILES | Ki [1] | Ki [2] | Ki [3]
COC1CC(NC(=O)[C@H](CC2(F)CCCC2)NC(=O)OC(C)(C)C)(C(=O)C(=O)Nc2ccn(C)n2)C1 (single isomer, unassigned) [Example 73, {2-(1-Fluoro-cyclopentyl)-1-[3-methoxy-1-(1-methyl-1H-pyrazol-3-ylaminooxalyl)-cyclobutylcarbamoyl]-ethyl}-carbamic acid tert-butyl ester] | 0.25 µM | 0.0008 µM | 1.1 µM
COC(=O)N[C@@H](CC1(C)CCCC1)C(=O)N[C@]1(C(=O)C(=O)Nc2ccn(C)n2)C[C@@H](F)C1 [Example 1] | 1.1 µM | 0.0036 µM | 4.8 µM
CCOC(=O)NC(CC(C)(C)C)C(=O)NC1(C(=O)C(=O)Nc2ccn(C)n2)CC(F)C1 (stereo not drawn) [Example 4] | 0.43 µM | 0.011 µM | 3.3 µM
CCOC(=O)NC(CC1(C)CCCC1)C(=O)NC1(C(=O)C(=O)Nc2ccn(C)n2)CC(F)C1 (stereo not drawn) [Example 8] | 1.2 µM | 0.001 µM | 3.3 µM
Cn1ccc(NC(=O)C(=O)C2(NC(=O)[C@H](CC3(F)CCCC3)NC(=O)OC(C)(C)C)CC(F)(F)C2)n1 [Example 10] | 0.17 µM | 0.00055 µM | 0.36 µM
Cn1cnc(NC(=O)C(=O)C2(NC(=O)[C@H](CC3(C)CCCC3)NC(=O)OC(C)(C)C)CCC2)c1 [Example 11] | 0.61 µM | 0.001 µM | 1.1 µM
Cn1ccc(NC(=O)C(=O)C2(NC(=O)C(CC3(C)CCC3)NC(=O)OC(C)(C)C)CC(F)C2)n1 (stereo not drawn) [Example 19] | 0.15 µM | 0.0047 µM | 0.33 µM
Cc1csc(NC(=O)C(=O)C2(NC(=O)[C@H](CC3(C)CCCC3)NC(=O)OC(C)(C)C)CCC2)n1 [Example 20] | 95 µM | 0.03 µM | > 200 µM
CC(C)(C)OC(=O)N[C@@H](CC1(F)CCCC1)C(=O)NC1(C(=O)C(=O)NC2CC2)CC(F)C1 (stereo partly drawn) [Example 22] | 3.8 µM | 0.014 µM | 25 µM
CC1(C[C@H](NC(=O)OC(C)(C)C)C(=O)NC2(C(=O)C(=O)NC3CC3)CCC2)CCCC1 [Example 24] | 4.4 µM | 0.0078 µM | 10 µM
CC(C)OC(=O)NC(CC1(F)CCCC1)C(=O)NC1(C(=O)C(=O)Nc2ccn(C)n2)CC(F)C1 (stereo not drawn) [Example 31] | 0.41 µM | 0.0018 µM | 1.2 µM
Cn1ccc(NC(=O)C(=O)C2(NC(=O)C(CC3CCCC3)NC(=O)OC(C)(C)C)CC(F)C2)n1 (stereo not drawn) [Example 45] | 1.1 µM | 0.006 µM | 0.85 µM
COC1CC(NC(=O)[C@H](CC2(F)CCCC2)NC(=O)OC(C)(C)C)(C(=O)C(=O)Nc2ccn(C)n2)C1 (stereo partly drawn) [Example 49] | 0.24 µM | 0.00065 µM | 0.66 µM
[2H]C([2H])([2H])n1ccc(NC(=O)C(=O)C2(NC(=O)C(CC3(F)CCCC3)NC(=O)OC(C)(C)C)CC(F)C2)n1 (stereo not drawn) [Example 50] | 0.1 µM | 0.00065 µM | 0.56 µM
Cn1ccc(NC(=O)C(=O)C2(NC(=O)[C@H](CC3(F)CCCC3)NC(=O)OC(C)(C)C)CCC2)n1 [Example 52] | 0.098 µM | 0.0004 µM | 0.27 µM
CC(CF)OC(=O)NC(CC1(F)CCCC1)C(=O)NC1(C(=O)C(=O)Nc2ccn(C)n2)CCC1 (stereo not drawn) [Example 56, {2-(1-Fluoro-cyclopentyl)-1-[1-(1-methyl-1H-pyrazol-3-ylaminooxalyl)-cyclobutylcarbamoyl]-ethyl}-carbamic acid 2-fluoro-1-methyl-ethyl ester] | 0.44 µM | 0.0018 µM | 0.99 µM
CC(C)(C)OC(=O)N[C@@H](CC1(F)CCCC1)C(=O)NC1(C(=O)C(=O)Nc2cc[nH]n2)CCC1 [Example 57, {2-(1-Fluoro-cyclopentyl)-1-[1-(1H-pyrazol-3-ylaminooxalyl)-cyclobutylcarbamoyl]-ethyl}-carbamic acid tert-butyl ester] | 0.29 µM | 0.00079 µM | 0.72 µM
Cn1ccc(NC(=O)C(=O)C2(NC(=O)[C@H](CC3(F)CCCC3)NC(=O)OC3COC3)CCC2)n1 [Example 59, {2-(1-Fluoro-cyclopentyl)-1-[1-(1-methyl-1H-pyrazol-3-ylaminooxalyl)-cyclobutylcarbamoyl]-ethyl}-carbamic acid oxetan-3-yl ester] | 0.34 µM | 0.0022 µM | 2.1 µM
CCOC(=O)N[C@@H](CC1(F)CCCC1)C(=O)NC1(C(=O)C(=O)NCCCN2CCN(C)CC2)CCC1 [Example 63] | 1.4 µM | 0.022 µM | 4.9 µM
CCOC(=O)NC(CC1(F)CCCC1)C(=O)NC1(C(=O)C(=O)Nc2ccn(C)n2)CC(OC)C1 (stereo not drawn) [Example 68] | 0.64 µM | 0.0011 µM | 2.4 µM
CCOC(=O)NC(CC1(C)CCCC1)C(=O)NC1(C(=O)C(=O)Nc2ccn(C)n2)CC(OC)C1 (stereo not drawn) [Example 70] | 1.4 µM | 0.0007 µM | 2.1 µM
